Measured values reported in ChEMBL document CHEMBL3045696, “CsFCelite catalyzed facile N-alkylation of 2(3H)-benzoxazolones and antimicrobial properties of 2-substituted benzoxazole and 3-substituted-2(3H)-benzoxazolone derivatives” (2011).
≈ marks a conversion by molar mass, not a printed value. Calls of active or inactive are those of the source. The rule behind the calls is not given here.

Tests used:
Assay type in all cases: functional
Rhizopus arrhizus [1] = assay: Antimicrobial activity against Rhizopus oryzae MTCC 262 at 100 ug after 48 hr by agar well diffusion method; conditions: for zone of inhibition at 100 µg/disc: MTCC 262, 48 h, read-out: IZ
Bacillus subtilis = assay: Antimicrobial activity against Bacillus subtilis MTCC 441 by broth dilution method
Aspergillus niger [2] = assay: Antimicrobial activity against Aspergillus niger MTCC 282 at 100 ug after 48 hr by agar well diffusion method; conditions: for zone of inhibition at 100 µg/disc: MTCC 282, 48 h, read-out: IZ
Staphylococcus aureus = assay: Antimicrobial activity against Staphylococcus aureus MTCC 96 by broth dilution method
Rhizopus arrhizus [3] = assay: Antimicrobial activity against Rhizopus oryzae MTCC 262 at 150 ug after 48 hr by agar well diffusion method; conditions: for zone of inhibition at 150 µg/disc: MTCC 262, 48 h, read-out: IZ
Escherichia coli = assay: Antimicrobial activity against Escherichia coli MTCC 443 by broth dilution method
Klebsiella pneumoniae = assay: Antimicrobial activity against Klebsiella pneumoniae MTCC 618 by broth dilution method
Saccharomyces cerevisiae [4] = assay: Antimicrobial activity against Saccharomyces cerevisiae MTCC 36 at 150 ug after 48 hr by agar well diffusion method; conditions: for zone of inhibition at 150 µg/disc: MTCC 36, 48 h, read-out: IZ
Candida albicans [5] = assay: Antimicrobial activity against Candida albicans MTCC 227 at 100 ug after 48 hr by agar well diffusion method; conditions: for zone of inhibition at 100 µg/disc: MTCC 227, 48 h, read-out: IZ
Aspergillus niger [6] = assay: Antimicrobial activity against Aspergillus niger MTCC 282 at 150 ug after 48 hr by agar well diffusion method; conditions: for zone of inhibition at 150 µg/disc: MTCC 282, 48 h, read-out: IZ
[7] = tested on: Staphylococcus epidermidis; assay: Antimicrobial activity against Staphylococcus epidermidis by broth dilution method
Pseudomonas aeruginosa = assay: Antimicrobial activity against Pseudomonas aeruginosa MTCC 741 by broth dilution method
Candida albicans [8] = assay: Antimicrobial activity against Candida albicans MTCC 227 at 150 ug after 48 hr by agar well diffusion method; conditions: for zone of inhibition at 150 µg/disc: MTCC 227, 48 h, read-out: IZ
Saccharomyces cerevisiae [9] = assay: Antimicrobial activity against Saccharomyces cerevisiae MTCC 36 at 100 ug after 48 hr by agar well diffusion method; conditions: for zone of inhibition at 100 µg/disc: MTCC 36, 48 h, read-out: IZ

MIC (Bacillus subtilis)	MIC (Staphylococcus aureus)	MIC (Escherichia coli)	MIC (Klebsiella pneumoniae)	MIC [7]	MIC (Pseudomonas aeruginosa)	SMILES	Activity (Rhizopus arrhizus [1])	Activity (Rhizopus arrhizus [3])	Activity (Saccharomyces cerevisiae [4])	Activity (Candida albicans [5])	zone of inhibition at 150 µg/disc (Aspergillus niger [6])	zone of inhibition at 150 µg/disc (Candida albicans [8])	Activity (Saccharomyces cerevisiae [9])	Activity (Aspergillus niger [2])	Activity (Aspergillus niger [6])	zone of inhibition at 150 µg/disc (Rhizopus arrhizus [3])	Activity (Candida albicans [8])	other results
150 µg/mL (≈ 535 µM)	150 µg/mL (≈ 535 µM)	150 µg/mL (≈ 535 µM)	150 µg/mL (≈ 535 µM)	150 µg/mL (≈ 535 µM)	75 µg/mL (≈ 268 µM)	c1ccc(N2CCN(c3nc4ccccc4o3)CC2)nc1	inactive	inactive	inactive			10 mm	inactive	inactive	inactive			zone of inhibition at 100 µg/disc (Candida albicans [5]): 8 mm
150 µg/mL (≈ 537 µM)	150 µg/mL (≈ 537 µM)	75 µg/mL (≈ 268 µM)	150 µg/mL (≈ 537 µM)	150 µg/mL (≈ 537 µM)	75 µg/mL (≈ 268 µM)	c1ccc(N2CCN(c3nc4ccccc4o3)CC2)cc1	inactive	inactive	inactive	inactive		9 mm	inactive	inactive	inactive			
150 µg/mL (≈ 511 µM)	150 µg/mL (≈ 511 µM)	150 µg/mL (≈ 511 µM)	150 µg/mL (≈ 511 µM)	75 µg/mL (≈ 256 µM)	75 µg/mL (≈ 256 µM)	c1ccc(CN2CCN(c3nc4ccccc4o3)CC2)cc1	inactive			inactive	9 mm	9 mm		inactive		9 mm		zone of inhibition at 150 µg/disc (Saccharomyces cerevisiae [4]): 10 mm; zone of inhibition at 100 µg/disc (Saccharomyces cerevisiae [9]): 12 mm
150 µg/mL (≈ 533 µM)	150 µg/mL (≈ 533 µM)	150 µg/mL (≈ 533 µM)	75 µg/mL (≈ 267 µM)	150 µg/mL (≈ 533 µM)	75 µg/mL (≈ 267 µM)	c1cnc(N2CCN(c3nc4ccccc4o3)CC2)nc1			inactive	inactive			inactive	inactive	inactive	10 mm	inactive	zone of inhibition at 100 µg/disc (Rhizopus arrhizus [1]): 8 mm
150 µg/mL (≈ 734 µM)	75 µg/mL (≈ 367 µM)	150 µg/mL (≈ 734 µM)	37.5 µg/mL (≈ 184 µM)	150 µg/mL (≈ 734 µM)	150 µg/mL (≈ 734 µM)	c1ccc2oc(N3CCOCC3)nc2c1	inactive	inactive	inactive			9 mm	inactive	inactive	inactive			zone of inhibition at 100 µg/disc (Candida albicans [5]): 7 mm
150 µg/mL (≈ 403 µM)	150 µg/mL (≈ 403 µM)	150 µg/mL (≈ 403 µM)	150 µg/mL (≈ 403 µM)	150 µg/mL (≈ 403 µM)	150 µg/mL (≈ 403 µM)	O=c1oc2ccc(Cl)cc2n1CCCN1CCN(c2ccccc2)CC1	inactive	inactive	inactive	inactive			inactive	inactive	inactive		inactive	
150 µg/mL (≈ 401 µM)	150 µg/mL (≈ 401 µM)	150 µg/mL (≈ 401 µM)	150 µg/mL (≈ 401 µM)	150 µg/mL (≈ 401 µM)	150 µg/mL (≈ 401 µM)	O=c1oc2ccc(Cl)cc2n1CCCN1CCN(c2ncccn2)CC1	inactive	inactive	inactive	inactive			inactive	inactive	inactive		inactive	
1.56 µg/mL (≈ 4.67 µM)	1.56 µg/mL (≈ 4.67 µM)	12.5 µg/mL (≈ 37.4 µM)	6.25 µg/mL (≈ 18.7 µM)	3.12 µg/mL (≈ 9.35 µM)	12.5 µg/mL (≈ 37.4 µM)	CC1(C)S[C@@H]2[C@H](NC(=O)Cc3ccccc3)C(=O)N2[C@H]1C(=O)O [PENICILLIN G]												
150 µg/mL (≈ 369 µM)	150 µg/mL (≈ 369 µM)	150 µg/mL (≈ 369 µM)	150 µg/mL (≈ 369 µM)	150 µg/mL (≈ 369 µM)	150 µg/mL (≈ 369 µM)	O=c1oc2ccc(Cl)cc2n1CCCN1CCN(c2cccc(Cl)c2)CC1	inactive	inactive	inactive	inactive			inactive	inactive	inactive		inactive	
150 µg/mL (≈ 742 µM)	150 µg/mL (≈ 742 µM)	150 µg/mL (≈ 742 µM)	150 µg/mL (≈ 742 µM)	150 µg/mL (≈ 742 µM)	150 µg/mL (≈ 742 µM)	c1ccc2oc(N3CCCCC3)nc2c1					10 mm	12 mm				11 mm		zone of inhibition at 100 µg/disc (Rhizopus arrhizus [1]): 8 mm; zone of inhibition at 100 µg/disc (Aspergillus niger [2]): 8 mm; zone of inhibition at 150 µg/disc (Saccharomyces cerevisiae [4]): 12 mm; zone of inhibition at 100 µg/disc (Candida albicans [5]): 9 mm; zone of inhibition at 100 µg/disc (Saccharomyces cerevisiae [9]): 9 mm
150 µg/mL (≈ 389 µM)	150 µg/mL (≈ 389 µM)	150 µg/mL (≈ 389 µM)	150 µg/mL (≈ 389 µM)	75 µg/mL (≈ 194 µM)	75 µg/mL (≈ 194 µM)	O=c1oc2ccc(Cl)cc2n1CCCN1CCN(Cc2ccccc2)CC1	inactive	inactive	inactive	inactive	9 mm	9 mm	inactive					zone of inhibition at 100 µg/disc (Aspergillus niger [2]): 7 mm
150 µg/mL (≈ 690 µM)	150 µg/mL (≈ 690 µM)	75 µg/mL (≈ 345 µM)	75 µg/mL (≈ 345 µM)	150 µg/mL (≈ 690 µM)	75 µg/mL (≈ 345 µM)	c1ccc2oc(N3CCCNCC3)nc2c1			inactive	inactive			inactive	inactive	inactive	10 mm	inactive	zone of inhibition at 100 µg/disc (Rhizopus arrhizus [1]): 8 mm

SMILES	MIC (Bacillus subtilis)	MIC (Staphylococcus aureus)	MIC (Escherichia coli)	MIC (Klebsiella pneumoniae)	MIC [7]	MIC (Pseudomonas aeruginosa)	Activity (Rhizopus arrhizus [1])	Activity (Rhizopus arrhizus [3])	Activity (Saccharomyces cerevisiae [4])	Activity (Candida albicans [5])	zone of inhibition at 150 µg/disc (Aspergillus niger [6])	zone of inhibition at 150 µg/disc (Candida albicans [8])	Activity (Saccharomyces cerevisiae [9])	Activity (Aspergillus niger [2])	Activity (Aspergillus niger [6])	zone of inhibition at 150 µg/disc (Rhizopus arrhizus [3])	Activity (Candida albicans [8])	other results
C=CCn1c(=O)oc2ccc(Cl)cc21	150 µg/mL (≈ 716 µM)	150 µg/mL (≈ 716 µM)	150 µg/mL (≈ 716 µM)	37.5 µg/mL (≈ 179 µM)	150 µg/mL (≈ 716 µM)	75 µg/mL (≈ 358 µM)	inactive	inactive	inactive	inactive	10 mm	8 mm	inactive					zone of inhibition at 100 µg/disc (Aspergillus niger [2]): 8 mm
CCN1CCN(c2nc3ccccc3o2)CC1	150 µg/mL (≈ 649 µM)	150 µg/mL (≈ 649 µM)	150 µg/mL (≈ 649 µM)	75 µg/mL (≈ 324 µM)	75 µg/mL (≈ 324 µM)	150 µg/mL (≈ 649 µM)	inactive	inactive			12 mm	10 mm						zone of inhibition at 100 µg/disc (Aspergillus niger [2]): 9 mm; zone of inhibition at 150 µg/disc (Saccharomyces cerevisiae [4]): 9 mm; zone of inhibition at 100 µg/disc (Candida albicans [5]): 8 mm; zone of inhibition at 100 µg/disc (Saccharomyces cerevisiae [9]): 7 mm
O=c1oc2ccc(Cl)cc2n1Cc1ccccc1	150 µg/mL (≈ 578 µM)	75 µg/mL (≈ 289 µM)	150 µg/mL (≈ 578 µM)	75 µg/mL (≈ 289 µM)	75 µg/mL (≈ 289 µM)	150 µg/mL (≈ 578 µM)	inactive	inactive	inactive	inactive			inactive	inactive	inactive		inactive	
CN[C@@H]1[C@H](O[C@H]2[C@H](O[C@H]3[C@H](O)[C@@H](O)[C@H](N=C(N)N)[C@@H](O)[C@@H]3N=C(N)N)O[C@@H](C)[C@]2(O)C=O)O[C@@H](CO)[C@H](O)[C@H]1O [STREPTOMYCIN]	6.25 µg/mL (≈ 10.7 µM)	6.25 µg/mL (≈ 10.7 µM)	6.25 µg/mL (≈ 10.7 µM)	3.12 µg/mL (≈ 5.37 µM)	3.12 µg/mL (≈ 5.37 µM)	1.56 µg/mL (≈ 2.69 µM)												
C#CCn1c(=O)oc2ccc(Cl)cc21	75 µg/mL (≈ 361 µM)	75 µg/mL (≈ 361 µM)	37.5 µg/mL (≈ 181 µM)	75 µg/mL (≈ 361 µM)	75 µg/mL (≈ 361 µM)	37.5 µg/mL (≈ 181 µM)					18 mm	11 mm				19 mm		zone of inhibition at 100 µg/disc (Rhizopus arrhizus [1]): 15 mm; zone of inhibition at 100 µg/disc (Aspergillus niger [2]): 15 mm; zone of inhibition at 150 µg/disc (Saccharomyces cerevisiae [4]): 18 mm; zone of inhibition at 100 µg/disc (Candida albicans [5]): 8 mm; zone of inhibition at 100 µg/disc (Saccharomyces cerevisiae [9]): 14 mm
CC1CN(c2nc3ccccc3o2)CCN1 (centres undefined)	150 µg/mL (≈ 690 µM)	150 µg/mL (≈ 690 µM)	75 µg/mL (≈ 345 µM)	150 µg/mL (≈ 690 µM)	150 µg/mL (≈ 690 µM)	150 µg/mL (≈ 690 µM)	inactive	inactive	inactive	inactive			inactive	inactive	inactive		inactive	
CN1CCN(c2nc3ccccc3o2)CC1	150 µg/mL (≈ 690 µM)	150 µg/mL (≈ 690 µM)	150 µg/mL (≈ 690 µM)	150 µg/mL (≈ 690 µM)	75 µg/mL (≈ 345 µM)	150 µg/mL (≈ 690 µM)	inactive	inactive	inactive	inactive			inactive	inactive	inactive		inactive	
C=CCCn1c(=O)oc2ccc(Cl)cc21	150 µg/mL (≈ 671 µM)	150 µg/mL (≈ 671 µM)	150 µg/mL (≈ 671 µM)	37.5 µg/mL (≈ 168 µM)	150 µg/mL (≈ 671 µM)	150 µg/mL (≈ 671 µM)			inactive	inactive			inactive	inactive	inactive	13 mm	inactive	zone of inhibition at 100 µg/disc (Rhizopus arrhizus [1]): 9 mm
